Assay results as given in patent US20150037341A1, “Diagnostic and Therapeutic Method” (Plysackaridforskning i Uppsala AB, priority 2011, published 2015).
Entries after “also recorded” stand apart in the source; their conditions may differ.

Tests used:
recombinant human WT TTR = target: T1, recombinant human WT TTR (Homo sapiens, UniProt P02766); test: Thioflavin T (ThT) fluorescence assay of TTR fibrillization in vitro; assay type: biochemical
T1 construct: made in house; host or cells: bacteria
Method: (§1) (A, B) The TTR dissolved in phosphate buffer (50 μM, pH 2.7) was incubated alone or with different heparin or HS (12 μM) at 37° C. for 48 h. After incubation the samples were mixed with ThT and fluorescence was measured. Data shown represent triplicate experiments (means±SEM). (C) TTR (500 μM) incubated with heparin (0, 5 or 20 μM) under the same conditions were analyzed with native-PAGE as described in Methods. […] The fibrils migrated in the stacking gel is not shown. (D) Microscopic analysis of the TTR after incubation with heparin. The sample was spotted on a glass and stained with Congo red. Images were taken under fluorescent light (Original magnification: 20×; Scale bar: 5 μm) and polarized light (insert).
Recombinant wild-type TTR was expressed in bacteria and purified as described previously (Furuya et al. (1991) Biochemistry 30:2415-2421). The purified protein was dissolved in 20 mM phosphate buffer-citric acid (pH 2.7, 3.5, 4.5 or 7.4) to a final concentration of 50 μM for Thioflavin T fluorescence or 500 μM for native-PAGE. Heparin (3H-labeled or unlabeled) and HS were added to the TTR solution to the concentrations as indicated in the respective figure legend. The samples were incubated at 37° C. for the time period as specified.
After incubation, 5 μl of the sample was mixed with ThT in water to a final concentration of 20 μM ThT. The mixture was transferred to a flat bottom-black 96-well plate (Grainer) and the fluorescence was measured at excitation- and emission wavelength of 440 and 480 nm, respectively (Gain=55, FARcyte instruments). Samples aggregated at different pHs were adjusted to neutral pH after completed incubation prior to ThT staining. The experiments were run in duplicate or triplicate.

[1] = test system: TTR transgenic flies (engineered mutant form of human TTR); test: Transgenic Drosophila TTR-model, flies reared on supplemented medium; assay type: in vivo, Drosophila melanogaster; conditions: medium supplemented 10 mg/ml, heads collected after 9-17 days
Method: (A) Eggs of TTR transgenic flies were cultured on regular medium (control) or medium supplemented with low molecular weight heparin (Klexane®) or heparin. Heads were collected 9-17 days posteclosion and lysed in saline. The extract was analyzed by ThT staining. Values represent the average of duplicate experiments. (B) The presence of heparin in the Drosophila head lysate was analyzed with dot-blot stained Alcian blue. Heparin (25 ng and 50 ng) was used as positive control. Twenty-five microliters of the lysate (same samples as used for ThT analysis) was applied to a nylon membrane (Hybond N+, GE Healthcare) and stained with Alcian blue (0.5% Alcian Blue dissolved in 25% isopropanol and 3% acetic acid).
FIG. 14 illustrates the detection of heparin-TTR co-localization in TTR transgenic flies (A-G) Confocal microscopy analysis of cryo-sections prepared from Drosophila heads. (A) Overview image of a Drosophila head stained with DAPI (blue), showing the brain (Br), optical lobes (OI) and retina (Re). […]
The transgenic Drosophila melanogaster strain (Dhet TTR-A) overexpressing a mutant TTR was generated as described (7). […] The fluorescence was measured as described above. Non-TTR-transgenic flies were used as control to subtract background fluorescence. […]

[2] = target: T2, recombinant wild-type TTR (Homo sapiens, UniProt P02766); test: Congo red staining of TTR after incubation with heparin; assay type: biochemical; conditions: fluorescence and polarized light microscopy
T2 construct: made in house; host or cells: bacteria
Method: as §1

heparin
ThT fluorescence (fibril content) (recombinant human WT TTR; TTR 50 μM, pH 2.7, 37° C., 48 h, in the presence of heparin): 8000 AU | Effect on TTR fibrillization/aggregation (ThT fluorescence) (recombinant human WT TTR; TTR 50 μM, pH 2.7, heparin or HS 12 μM, 37° C., 48 h): prompted TTR aggregation, forming substantial amounts of amyloid-like fibrils | Effect on TTR fibrillization (ThT fluorescence) (recombinant human WT TTR; pH 2.7 and 5.0): greatly promoted TTR fibrillization | TTR amyloid-like fibril formation in fly head lysate (ThT fluorescence) [1]: generated ThT-positive amyloid-like fibrils; also recorded: promoted formation of TTR amyloid-like fibrils | Congo red staining of fibrils [2]: Congo red positive fibrils
